According to patent US10927375B1, “Compositions and methods to reduce beta-agonist-mediated tachyphylaxis” (University of South Florida, priority 2018, dated 2021):
Entries after “also recorded” stand apart in the source; their conditions may differ.

Experiments:
[1] = test system: let-7f miRNA expression in HASM cells; assay: let-7f miRNA expression in cultured HASM cells by quantitative RT-PCR; assay type: cell-based, human; details: for change in let-7f miRNA expression after treatment with the agent: 18 h at 37° C., asthmatic and nonasthmatic HASM cells, ISO 30 μM, forskolin 10 mM, dibutyryl-cAMP 100 mM as printed
[2] = test system: β2AR; details: stably transfected HEK 293 cells greatly overexpressing β2ARs (ref. 40); cited from earlier work
[3] = test system: β2AR; details: incubating cells with dibutyryl-cAMP and forskolin (ref. 37); cited from earlier work
[4] = test system: ADRB2 mRNA; assay: ADRB2 mRNA in D9 HASM cells by RT-PCR; details: 18 h ISO
Description: (§1) The immortalized HASM cell line denoted D9 hTERT was developed as described (22), and was grown in the same manner. […] In some experiments, pretreatment with 10 μM N-(2-[p-bromocinnamylamino]ethyl)-5-isoquinoline-sulfonamide (H89) occurred for 1 h prior to the aforementioned treatments.
RT-PCR was performed using a LightCycler 96 system (Roche, Basel, Switzerland) and TaqMan polymerase (Applied Biosystems, Foster City, Calif., USA) as previously described (26, 27). The RT reactions utilized Oligo d(T)16 for ADRB2 and glyceraldehyde-3 phosphate dehydrogenase (control), and the primers included with the TaqMan MicroRNA assay (Applied Biosystems) for the reaction with let-7f and U6 snRNA (control). […] Quantitation of transcripts was made by the 22DCt method (28, 29).

[5] = target: β2AR (Homo sapiens, UniProt P07550); assay: β2AR protein expression / agonist-promoted down-regulation in HASM cells (Western blot, radioligand binding)
Description: as §1
HASM cells in 6-well plates were transfected using Lipofectamine 2000 (Thermo Fisher Scientific, Waltham, Mass., USA) as described in detail elsewhere (22, 23). Cells were in a final volume of 1.0 ml and the indicated constructs along with 10 ml of Lipofectamine 2000 were added to initiate the transfection. The constructs and final concentrations were: cAMP receptor element-binding protein [CREB (in pcDNA3, 4 μg/ml)], siCREB (40 nM of siGenome SmartPool; Dharmacon, Lafayette, Colo., USA), and to inhibit let-7f, a competitive inhibitor (Dharmacon) that binds to let-7f (24, 25) at a final concentration of 40 nM (24, 25). The cells were studied 48 h after transfection. […] Secondary antibody for chemoluminescence (Thermo Fisher Scientific) was at a titer of 1:10,000. ChemiDoc (Bio-Rad, Hercules, Calif., USA) was used to detect bands, which were quantitated using ImageJ (National Institutes of Health, Bethesda, Md., USA).
Radioligand binding. Confluent cells in 10 cm dishes were washed 3 times with cold PBS followed by disruption with a cell scraper in buffer consisting of 5 mM Tris and 2 mM EDTA at 4° C. (pH 7.4). Crude membranes were collected by centrifugation at 30,000 g for 15 min at 4° C., and resuspended in assay buffer consisting of 75 mM Tris, 12 mM MgCl2, and 5 mM EDTA at 25° C. (pH 7.4). […] After incubation for 1.5 h at 25° C., bound radioligands were separated from free radioligands by rapid dilution and vacuum filtration with buffer containing 15 ml of 5 mM Tris and 2 mM EDTA at 25° C. (pH 7.4) over Whatman GF/C filters (GE Healthcare Bio-Sciences, Piscataway, N.J., USA) using a Brandel cell harvester (Brandel, Gaithersberg, Md., USA). Specific binding was divided by the added cell membrane protein and β2AR expression stated as femtomoles per milligram.

CCCC(=O)Nc1ncnc2c1ncn2[C@@H]1O[C@@H]2COP(=O)(O)O[C@H]2[C@H]1OC(=O)CCC [dibutyryl-cAMP]
change in let-7f miRNA expression after treatment with the agent [1]: increased | degree of β2AR down-regulation compared with that of ISO [2]: relatively small degree | β2AR down-regulation relative to β-agonists [3]: nearly the same extent

CC(C)NCC(O)c1ccc(O)c(O)c1 (centres unmarked) [ISO, isoproterenol]
change in let-7f miRNA expression after treatment with the agent [1]: increased | increase in let-7f miRNA expression ([1]; 18 h exposure to ISO (30 μM), both asthmatic and non-asthmatic HASM cells): ~3 fold | change in ADRB2 mRNA due to ISO exposure [4]: not altered; also recorded: not found to be changed

O=S(=O)(NCCNCC=Cc1ccc(Br)cc1)c1cccc2cnccc12 [H89]
effect of H89 on ISO-promoted increase in let-7f ([1]; 10 μM H89 pretreatment 1 h, then ISO 18 h, asthmatic and non-asthmatic HASM cells): blocked; also recorded: inhibited | effect of H89 on forskolin-promoted increase in let-7f ([1]; 10 μM H89 pretreatment 1 h, then forskolin 18 h, asthmatic and non-asthmatic HASM cells): blocked; also recorded: inhibited | effect of H89 on dibutyryl-cAMP-promoted increase in let-7f ([1]; 10 μM H89 pretreatment, then dibutyryl-cAMP 18 h, HASM cells): blocked

B1: let-7f inhibitor: competitive inhibitor (Dharmacon) that binds to let-7f; Cat. No. IH-30048-07, SEQ ID NO: 14 (nucleic acid)
chain: UCAGAGUGAGGUAGUAGAUUGUAUAGUUGUGGGGUAGUGAUUUUACCCUGUUCAGGAGAUAACUAUACAAUCUAUUGCCUUCCCUGA
modifications: commercial inhibitor, chemistry not given here
attenuation of agonist-promoted β2AR down-regulation ([5]; let-7f or CREB silenced, chronic agonist): about 50% | effect on ISO-promoted β2AR down-regulation ([5]; transfection 40 nM 48 h, then ISO 18 h): attenuates; also recorded: markedly attenuated
